Source: patent publication US12187742B2 (XRAD Therapeutics, Inc., priority 2018, dated 2025)
Where a name gives a salt, the structure may show the parent alone.

Assays:
[1] = biological target: ATM (Homo sapiens (Human), UniProt Q13315); experiment: ATM in Cell Western Assay (pKAP1 in etoposide-treated MCF-7 cells); assay type: cell-based; details: MCF-7 cells, etoposide 100 μM, 1 hr, pKAP1 readout
Method in brief: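 Cells received compounds in a 10-dose, 3-fold series from a 1 μM final top concentration, then 100 μM etoposide, for 1 hr at 37° C. They were then fixed with paraformaldehyde and permeabilized with 0.1% Triton X-100. After immunostaining, plates were scanned on an infrared imager.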

[2] = biological target: DNA-PK (Homo sapiens (Human), UniProt P78527); experiment: DNA-PK Enzyme-Linked Immunosorbent Assay (phosphorylation of GST-p53 (1-101) peptide); assay type: biochemical; details: ELISA, ATP 20 μM
Method in brief: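 ELISA with plate-bound GST-p53 (1-101) phosphorylated by DNA-PK (0.1 μg/mL final) with 20 μM ATP for 1 h at 25 °C. Compounds tested over 10 3-fold doses from 100 nM top final. Phospho-p53 Ser15 detected by antibody, HRP and TMB, absorbance at 450 nm.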

ATM, sequence (Q13315 whole entry): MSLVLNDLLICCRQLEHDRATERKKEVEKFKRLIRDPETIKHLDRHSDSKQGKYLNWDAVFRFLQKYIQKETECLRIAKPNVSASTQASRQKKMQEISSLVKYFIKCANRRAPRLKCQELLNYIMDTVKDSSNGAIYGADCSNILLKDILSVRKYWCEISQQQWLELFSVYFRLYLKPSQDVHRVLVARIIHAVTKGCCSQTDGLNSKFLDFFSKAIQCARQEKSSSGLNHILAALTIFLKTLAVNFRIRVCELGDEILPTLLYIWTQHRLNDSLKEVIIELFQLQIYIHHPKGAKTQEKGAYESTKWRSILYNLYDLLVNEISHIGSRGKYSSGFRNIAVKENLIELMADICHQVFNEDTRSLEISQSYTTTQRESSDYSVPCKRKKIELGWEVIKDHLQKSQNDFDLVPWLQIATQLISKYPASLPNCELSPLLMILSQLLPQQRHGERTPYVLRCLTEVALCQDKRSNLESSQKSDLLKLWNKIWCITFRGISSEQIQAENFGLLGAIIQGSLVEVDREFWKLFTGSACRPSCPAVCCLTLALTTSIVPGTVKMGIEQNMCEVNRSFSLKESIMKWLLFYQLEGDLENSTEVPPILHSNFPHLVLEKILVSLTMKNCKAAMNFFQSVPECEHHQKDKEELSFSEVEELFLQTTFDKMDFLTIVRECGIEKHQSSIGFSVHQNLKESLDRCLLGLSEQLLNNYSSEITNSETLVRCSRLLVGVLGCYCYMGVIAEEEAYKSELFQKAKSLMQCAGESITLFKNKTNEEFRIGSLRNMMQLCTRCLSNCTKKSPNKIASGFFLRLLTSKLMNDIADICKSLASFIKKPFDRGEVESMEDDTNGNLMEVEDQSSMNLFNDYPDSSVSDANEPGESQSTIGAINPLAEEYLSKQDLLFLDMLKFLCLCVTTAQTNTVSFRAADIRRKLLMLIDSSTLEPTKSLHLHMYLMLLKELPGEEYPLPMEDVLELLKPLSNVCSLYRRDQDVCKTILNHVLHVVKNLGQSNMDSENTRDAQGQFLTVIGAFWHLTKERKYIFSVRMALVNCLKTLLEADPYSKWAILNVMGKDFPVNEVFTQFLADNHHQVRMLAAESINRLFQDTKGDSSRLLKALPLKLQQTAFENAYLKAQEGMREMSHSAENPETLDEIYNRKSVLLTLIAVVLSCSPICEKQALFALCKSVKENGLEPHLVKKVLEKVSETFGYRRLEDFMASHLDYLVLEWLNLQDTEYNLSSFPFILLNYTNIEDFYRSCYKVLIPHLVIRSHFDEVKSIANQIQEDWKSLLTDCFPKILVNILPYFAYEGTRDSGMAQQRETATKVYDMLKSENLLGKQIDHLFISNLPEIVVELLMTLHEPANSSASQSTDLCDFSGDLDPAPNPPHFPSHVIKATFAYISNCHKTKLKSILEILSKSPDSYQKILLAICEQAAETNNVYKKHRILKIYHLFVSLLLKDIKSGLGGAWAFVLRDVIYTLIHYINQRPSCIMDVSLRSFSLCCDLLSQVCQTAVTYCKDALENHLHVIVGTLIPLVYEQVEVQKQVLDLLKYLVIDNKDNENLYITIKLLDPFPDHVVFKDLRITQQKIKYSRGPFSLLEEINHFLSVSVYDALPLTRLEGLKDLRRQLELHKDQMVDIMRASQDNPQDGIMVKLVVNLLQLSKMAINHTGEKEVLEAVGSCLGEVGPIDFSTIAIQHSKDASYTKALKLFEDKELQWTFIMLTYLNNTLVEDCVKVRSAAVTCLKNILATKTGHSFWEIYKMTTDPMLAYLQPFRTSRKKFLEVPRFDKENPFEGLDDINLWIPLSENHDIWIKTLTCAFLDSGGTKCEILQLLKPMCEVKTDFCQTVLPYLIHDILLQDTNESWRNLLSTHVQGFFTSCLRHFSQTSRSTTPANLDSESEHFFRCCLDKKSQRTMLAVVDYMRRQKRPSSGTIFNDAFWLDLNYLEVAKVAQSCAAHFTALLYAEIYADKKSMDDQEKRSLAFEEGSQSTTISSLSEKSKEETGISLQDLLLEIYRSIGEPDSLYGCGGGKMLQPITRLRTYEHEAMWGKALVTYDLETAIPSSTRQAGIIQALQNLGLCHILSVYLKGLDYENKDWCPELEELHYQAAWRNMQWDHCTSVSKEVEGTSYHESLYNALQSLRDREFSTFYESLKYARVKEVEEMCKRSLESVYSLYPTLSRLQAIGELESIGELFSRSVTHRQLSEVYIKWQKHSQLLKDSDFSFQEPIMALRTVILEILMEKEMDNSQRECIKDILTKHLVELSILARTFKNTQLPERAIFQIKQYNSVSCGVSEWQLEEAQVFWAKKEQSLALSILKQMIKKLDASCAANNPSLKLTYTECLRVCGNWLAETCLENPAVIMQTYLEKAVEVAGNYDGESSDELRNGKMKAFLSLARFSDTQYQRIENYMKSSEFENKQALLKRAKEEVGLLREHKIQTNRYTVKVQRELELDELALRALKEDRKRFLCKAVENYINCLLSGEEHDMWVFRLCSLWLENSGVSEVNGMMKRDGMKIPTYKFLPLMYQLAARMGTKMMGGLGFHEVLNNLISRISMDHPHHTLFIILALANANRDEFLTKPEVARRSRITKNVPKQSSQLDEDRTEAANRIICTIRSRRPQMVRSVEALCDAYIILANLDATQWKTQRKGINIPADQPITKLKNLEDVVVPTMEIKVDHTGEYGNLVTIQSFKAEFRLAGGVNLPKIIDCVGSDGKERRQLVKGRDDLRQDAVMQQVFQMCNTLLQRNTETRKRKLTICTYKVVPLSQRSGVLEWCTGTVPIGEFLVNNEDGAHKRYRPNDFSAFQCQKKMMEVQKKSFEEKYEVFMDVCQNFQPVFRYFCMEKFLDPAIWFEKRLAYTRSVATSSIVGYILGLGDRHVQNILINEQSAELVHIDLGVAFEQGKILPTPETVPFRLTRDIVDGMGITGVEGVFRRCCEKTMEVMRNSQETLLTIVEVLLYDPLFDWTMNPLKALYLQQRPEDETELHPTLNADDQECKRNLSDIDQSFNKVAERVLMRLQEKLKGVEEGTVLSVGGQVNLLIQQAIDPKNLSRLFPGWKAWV

Row | IC50 [1] [nM] | IC50 [2] [nM] | Compound
1 | 1 to 100 | 0.5 to 1 | Cc1ncc(S(=O)(=O)Nc2cc(-c3ccc4ncc5c(c4c3)C3(CCC3)C(=O)N5C)cnc2OCCCN(C)C)s1 [Example 289, N-(2-(3-(Dimethylamino)propoxy)-5-(3′-methyl-2′-oxo-2′,3′-dihydrospiro [cyclobutane-1,1′-pyrrolo [2,3-c]quinolin]-8′-yl)pyridin-3-yl)-2-methylthiazole-5-sulfonamide]
2 | 1 to 100 | 0.5 to 1 | CN(C)CCCOc1ncc(-c2cc3c4c(cnc3cc2F)N(C)C(=O)C42CCC2)cc1NS(=O)(=O)N(C)C [Example 290, 8′-{6-[3-(Dimethylamino)propoxy]-5-[(dimethylsulfamoyl)amino]pyridin-3-yl}-7′-fluoro-3′-methyl-2′,3′-dihydrospiro[cyclobutane-1,1′-pyrrolo[2,3-c]quinoline]-2′-one hydrochloride]
3 | 1 to 100 | 1 to 100 | CN(C)CCCOc1ncc(-c2cc3c4c(cnc3cc2F)N(C)C(=O)C42CCC2)cc1NS(C)(=O)=O [Example 291, N-(2-(3-(Dimethylamino)propoxy)-5-(7′-fluoro-3′-methyl-2′-oxo-2′,3′-dihydrospiro [cyclobutane-1,1′-pyrrolo[2,3-c]quinolin]-8′-yl)pyridin-3-yl)methanesulfonamide hydrochloride]
4 | > 100 | > 100 | CN(CCC#N)CCCOc1ncc(-c2ccc3ncc4c(c3c2)C2(CCC2)C(=O)N4C)cc1NS(C)(=O)=O [Example 293, N-(2-(3-((2-Cyanoethyl)(methyl)amino)propoxy)-5-(3′-methyl-2′-oxo-2′3′-dihydrospiro[cyclobutane-1,1′-pyrrolo[2,3-c]quinolin]-8′-yl)pyridin-3-yl)methanesulfonamide]
5 | 1 to 100 | 1 to 100 | COCCN(C)CCCOc1ncc(-c2cc3c4c(cnc3cc2F)N(C)C(=O)C42CCC2)cc1NS(=O)(=O)N1CCOCC1 [Example 294, N-(5-(7′-Fluoro-3′-methyl-2′-oxo-2′,3′-dihydrospiro[cyclobutane-1,1′-pyrrolo[2,3-c]quinolin]-8′-yl)-2-(3-((2-methoxyethyl)(methyl)amino)propoxy)pyridin-3-yl)morpholine-4-sulfonamide]
6 | 1 to 100 | 0.5 to 1 | CN(C)CC(O)COc1ncc(-c2ccc3ncc4c(c3c2)C2(CCC2)C(=O)N4C)cc1NS(C)(=O)=O (stereo not shown) [Example 295, N-(2-(3-(Dimethylamino)-2-hydroxypropoxy)-5-(3′-methyl-2′-oxo-2′,3′-dihydrospiro[cyclobutane-1,1′-pyrrolo[2,3-c]quinolin]-8′-yl)pyridin-3-yl)methanesulfonamide]
7 | 1 to 100 | 1 to 100 | CN1C(=O)C2(CCC2)c2c1cnc1cc(F)c(-c3cnc(OCCCN4CCC(F)CC4)c(NS(C)(=O)=O)c3)cc21 [Example 297, N-(5-(7′-Fluoro-3′-methyl-2′-oxo-2′,3′-dihydrospiro[cyclobutane-1,1′-pyrrolo[2,3-c]quinolin]-8′-yl)-2-(3-(4-fluoropiperidin-1-yl)propoxy)pyridin-3-yl)methanesulfonamide hydrochloride]
8 | 1 to 100 | 1 to 100 | CN1CCN(CCCOc2ncc(-c3ccc4ncc5c(c4c3)C3(CCC3)C(=O)N5C)cc2NS(C)(=O)=O)CC1 [Example 299, N-(5-(3′-Methyl-2′-oxo-2′,3′-dihydrospiro[cyclobutane-1,1′-pyrrolo[2,3-c]quinolin]-8′-yl)-2-(3-(4-methylpiperazin-1-yl)propoxy)pyridin-3-yl)methanesulfonamide]
9 | 1 to 100 | < 0.5 | CN1C(=O)C2(CCC2)c2c1cnc1ccc(-c3cnc(OCCCN4CCCCC4)c(NS(=O)(=O)C(F)F)c3)cc21 [Example 302, 1,1-Difluoro-N-(5-(3-methyl-2′-oxo-2′,3′-dihydrospiro[cyclobutane-1,1′-pyrrolo[2,3-c]quinolin]-8-yl)-2-(3-(piperidin-1-yl)propoxy)pyridin-3-yl)methanesulfonamide]
10 | 1 to 100 | 0.5 to 1 | CN1C(=O)C2(CCC2)c2c1cnc1ccc(-c3cnc(OCCCN4CCOCC4)c(NS(=O)(=O)N(C)C)c3)cc21 [Example 304, 8′-{5-[(Dimethylsulfamoyl)amino]-6-[3-(morpholin-4-yl)propoxy]pyridin-3-yl)-3′-methyl-2′,3′-dihydrospiro[cyclobutane-1,1′-pyrrolo[2,3-c]quinoline]-2′-one]
11 | 1 to 100 | 1 to 100 | CN1C(=O)C2(CCC2)c2c1cnc1ccc(-c3cnc(OCCCN4CCOCC4)c(NS(C)(=O)=O)c3)cc21 [Example 305, N-(5-(3′-Methyl-2′-oxo-2′,3′-dihydrospiro[cyclobutane-1,1′-pyrrolo[2,3-c]quinolin]-8′-yl)-2-(3-morpholinopropoxy)pyridin-3-yl)methanesulfonamide]
12 | 1 to 100 | 1 to 100 | CN1C(=O)C2(CCC2)c2c1cnc1ccc(-c3cnc(OCCCN4CCOCC4)c(NS(=O)(=O)C4CC4)c3)cc21 [Example 306, N-(5-(3′-Methyl-2′-oxo-2′,3′-dihydrospiro[cyclobutane-1,1′-pyrrolo[2,3-c]quinolin]-8′-yl)-2-(3-morpholinopropoxy)pyridin-3-yl)cyclopropanesulfonamide]
13 | 1 to 100 | 0.5 to 1 | CN1C(=O)C2(CCC2)c2c1cnc1ccc(-c3cnc(OCCNC(C)(C)C)c(NS(C)(=O)=O)c3)cc21 [Example 309]
14 | 1 to 100 | 1 to 100 | COC1CN(S(=O)(=O)Nc2cc(-c3cc4c5c(cnc4cc3F)N(C)C(=O)C53CCC3)cnc2N2CC(N(C)C)C2)C1 [Example 311, N-(2-(3-(Dimethylamino)azetidin-1-yl)-5-(7′-fluoro-3′-methyl-2′-oxo-2′,3′-dihydrospiro[cyclobulane-1,1′-pyrrolo[2,3-c]quinolin]-8′-yl)pyridin-3-yl)-3-methoxyazetidine-1-sulfonamide formate]
15 | 1 to 100 | 1 to 100 | CN1C(=O)C2(CCC2)c2c1cnc1cc(F)c(-c3cnc(N4CC(N(C)C)C4)c(NS(=O)(=O)c4ccc(F)cc4F)c3)cc21 [Example 315, N-(2-(3-(Dimethylamino)azetidin-1-yl)-5-(7′-fluoro-3′-methyl-2′-oxo-2′,3′-dihydrospiro[cyclobulane-1,1′-pyrrolo[2,3-c]quinolin]-8′-yl)pyridin-3-yl)-2,4-difluorobenzenesulfonamide hydrochloride]
16 | 1 to 100 | 1 to 100 | CN1C(=O)C2(CCC2)c2c1cnc1cc(F)c(-c3cnc(N4CC(N(C)C)C4)c(NS(=O)(=O)N(C)C)c3)cc21 [Example 316, 8′-{6-[3-(Dimethylamino)azetidin-1-yl]-5-[(dimethylsulfamoyl)amino]pyridin-3-yl}-7′-fluoro-3′-methyl-2′,3′-dihydrospiro[cyclobulane-1,1′-pyrrolo[2,3-c]quinoline]-2′-one hydrochloride]
17 | 1 to 100 | 1 to 100 | CN1C(=O)C2(CCC2)c2c1cnc1cc(F)c(-c3cnc(N4CC(N(C)C)C4)c(NS(C)(=O)=O)c3)cc21 [Example 317, N-(2-(3-(Dimethylamino)azetidin-1-yl)-5-(7′-fluoro-3′-methyl-2′-oxo-2′,3′-dihydrospiro[cyclobulane-1,1′-pyrrolo[2,3-c]quinolin]-8′-yl)pyridin-3-yl)methanesulfonamide hydrochloride]
